Experimental data as given in US12161654B2, “Stability of vitamin D in β-hydroxy-β-methylbutyrate (HMB)” (Metabolic Technologies, LLC, priority 2018, dated 2024).

Tests used:
[1] = pH of HMBFA and buffered HMBFA; assay type: physicochemical
Excerpt: In most instances, the HMB utilized in clinical studies and marketed as an ergogenic aid has been in the calcium salt form. Recent advances have allowed the HMB to be manufactured in a free acid form for use human and animal uses, and preferably as a nutritional supplement or incorporated into foodstuffs. […] The pH of HMBFA is <3.
Preparation of Buffered HMB in the Free Acid Form (HMBFA) Briefly, 400 g HMBFA (TSI lot 12111036) was weigh into a one liter beaker and then 37.8 g of with potassium carbonate (K2CO3) was added to the HMBFA. A stir bar was added and the mixture was stirred for 60 h. The resulting pH was approximately 4.5. Alternatively, the reaction may be accelerated by mixing water (35 g) with potassium carbonate (37) g and then adding HMBFA (400 g).

[2] = healthy young or old adults; cited from earlier work
[3] = after HMB is fed; cited from earlier work

| Compound | pH [1] | side effects [2] | loss of HMB to urine [3] |
| --- | --- | --- | --- |
| CC(C)(O)CC(=O)O [HMBFA, β-hydroxy-β-methylbutyrate] | < 3 |  |  |
| CC(C)(O)CC(=O)O [HMB, β-hydroxy-β-methylbutyrate] |  | no side effects | 20-50% |
